Test results from PMC6743422, “Preclinical disposition of MGS0274 besylate, a prodrug of a potent group II metabotropic glutamate receptor agonist MGS0008 for the treatment of schizophrenia” (Pharmacology Research & Perspectives, 2019).
Read-outs that look alike come from different tables or passages of the source.

What was measured:
[1] = system: cultured human hepatocytes; assay: Toxicity to the cultured human hepatocytes; format: cell-based; settings: at the concentrations tested (3-30 μM)
CYP3A4 mRNA = format: in vitro ADME, human; settings: three consecutive 24-hour treatments
Method: (§1) The primary cultured cryopreserved human hepatocytes were plated in a collagen‐coated 96‐well plate (Becton Dickinson, Franklin Lakes, NJ) with Williams’ Medium E (Invitrogen, Carlsbad, CA) containing Geltrex^TM (Invitrogen) and Maintenance Supplements (Invitrogen) and maintained in humidified air‐5% CO2 at 37°C for 3 days. Then, the cells were cultured for three consecutive 24‐hour treatments with MGS0008 (3‐30 µmol/L), with MGS0274 besylate (3‐30 µmol/L), or with positive controls (omeprazole for CYP1A2 at 50 µmol/L, phenobarbital for CYP2B6 at 1000 µmol/L, or rifampicin for CYP3A4 at 10 µmol/L). The mRNA expression levels of CYP1A2, 2B6, and 3A4 were measured using the real‐time polymerase chain reaction (RT‐PCR) method (7500 Fast RT‐PCR system; Applied Biosystems, Foster City, CA) with TaqMan® Fast Universal PCR Master Mix (probe ID: Hs00167927_m1 for CYP1A2, Hs04183483_g1 for CYP2B6, and Hs00604506_ml for CYP3A4; Applied Biosystems). The fold change in the mRNA expression was calculated using the 2^‐ΔΔCT method.22

[2] = system: CYP1A2, 2B6, 2C8, 2C9, 2C19, 2D6 and 3A; assay: CYP inhibition in human liver microsomes, all 7 isoforms together; format: in vitro ADME; settings: human, at 10 μM, all the CYP isoforms tested, read-out: percent inhibition
[3] = system: human cytochrome P450 (CYP) isoforms (CYP1A2, 2B6, 2C8, 2C9, 2C19, 2D6, and 3A); assay: as above; format: in vitro ADME; settings: MGS0008 0.3-100 µmol/L, MGS0274 besylate 0.03-10 µmol/L
CYP2D6 = biological target: T1, CYP2D6 (Homo sapiens, UniProt P10635); assay: CYP inhibition in human liver microsomes, CYP2D6; format: in vitro ADME; settings: human liver microsomes 0.1 mg/mL; probe (±)-Bufuralol, metabolite 1'-Hydroxybufuralol
T1 construct: using probe substrates for each CYP isoform and human liver microsomes; from tissue; host or cells: human liver microsomes
T1 sequence (P10635 whole entry, canonical isoform): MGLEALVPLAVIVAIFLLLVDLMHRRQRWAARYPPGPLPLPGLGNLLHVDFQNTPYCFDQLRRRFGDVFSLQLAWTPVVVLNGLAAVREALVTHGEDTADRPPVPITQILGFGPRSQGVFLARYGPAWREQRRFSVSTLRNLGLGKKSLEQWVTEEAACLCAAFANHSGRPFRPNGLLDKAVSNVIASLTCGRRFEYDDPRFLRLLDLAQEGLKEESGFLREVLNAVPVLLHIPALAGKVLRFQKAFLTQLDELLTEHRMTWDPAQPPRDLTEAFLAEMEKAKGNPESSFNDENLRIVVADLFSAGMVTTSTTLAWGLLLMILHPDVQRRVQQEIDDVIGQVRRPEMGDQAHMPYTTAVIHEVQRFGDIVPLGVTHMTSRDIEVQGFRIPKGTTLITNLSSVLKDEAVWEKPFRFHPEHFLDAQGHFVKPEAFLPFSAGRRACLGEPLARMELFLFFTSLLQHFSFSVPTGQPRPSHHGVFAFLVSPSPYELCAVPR

CYP2C9 = biological target: T2, CYP2C9 (Homo sapiens, UniProt P11712); assay: CYP inhibition in human liver microsomes, CYP2C9; format: in vitro ADME; settings: human liver microsomes 0.1 mg/mL; probe Diclofenac, metabolite 4'-Hydroxydiclofenac
T2 construct: using probe substrates for each CYP isoform and human liver microsomes; from tissue; host or cells: human liver microsomes
T2 sequence (P11712 whole entry, canonical isoform): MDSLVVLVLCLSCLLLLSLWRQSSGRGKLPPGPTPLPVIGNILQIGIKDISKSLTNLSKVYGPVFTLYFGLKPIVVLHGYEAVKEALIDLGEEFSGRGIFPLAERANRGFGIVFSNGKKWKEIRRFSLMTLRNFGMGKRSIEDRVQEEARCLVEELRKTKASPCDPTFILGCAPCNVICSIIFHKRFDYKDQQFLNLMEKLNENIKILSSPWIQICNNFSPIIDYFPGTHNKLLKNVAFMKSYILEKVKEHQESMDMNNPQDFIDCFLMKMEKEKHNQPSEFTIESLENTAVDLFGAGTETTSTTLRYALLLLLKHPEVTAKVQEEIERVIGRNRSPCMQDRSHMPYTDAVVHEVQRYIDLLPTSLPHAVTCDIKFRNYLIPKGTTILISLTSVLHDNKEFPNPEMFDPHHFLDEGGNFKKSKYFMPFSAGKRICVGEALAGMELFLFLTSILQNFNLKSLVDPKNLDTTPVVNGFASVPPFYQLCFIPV

CYP2B6 = biological target: T3, CYP2B6 (Homo sapiens, UniProt P20813); assay: CYP inhibition in human liver microsomes, CYP2B6; format: in vitro ADME; settings: human liver microsomes 0.1 mg/mL; probe Bupropion, metabolite Hydroxybupropion
T3 construct: using probe substrates for each CYP isoform and human liver microsomes; from tissue; host or cells: human liver microsomes
T3 sequence (P20813 whole entry, canonical isoform): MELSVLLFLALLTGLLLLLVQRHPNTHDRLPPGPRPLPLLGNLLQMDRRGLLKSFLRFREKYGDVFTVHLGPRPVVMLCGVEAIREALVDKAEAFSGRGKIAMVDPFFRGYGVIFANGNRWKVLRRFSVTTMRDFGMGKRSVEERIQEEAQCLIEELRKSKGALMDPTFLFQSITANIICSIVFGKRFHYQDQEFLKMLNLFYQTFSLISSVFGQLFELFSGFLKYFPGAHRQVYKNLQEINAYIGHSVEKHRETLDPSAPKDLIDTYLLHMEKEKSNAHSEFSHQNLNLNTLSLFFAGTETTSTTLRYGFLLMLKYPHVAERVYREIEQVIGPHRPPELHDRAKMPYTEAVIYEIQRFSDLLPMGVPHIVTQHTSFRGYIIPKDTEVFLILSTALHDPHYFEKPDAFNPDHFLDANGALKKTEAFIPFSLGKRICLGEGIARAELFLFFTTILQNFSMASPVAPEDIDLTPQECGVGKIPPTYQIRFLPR

CYP1A2 mRNA = assay: CYP induction in primary cultured cryopreserved human hepatocytes, CYP1A2 mRNA; format: in vitro ADME; settings: three consecutive 24-hour treatments
Method: as §1

CYP1A2 = biological target: T4, CYP1A2 (Homo sapiens, UniProt P05177); assay: CYP inhibition in human liver microsomes, CYP1A2; format: in vitro ADME; settings: human liver microsomes 0.1 mg/mL; probe Phenacetin, metabolite Acetaminophen
T4 construct: using probe substrates for each CYP isoform and human liver microsomes; from tissue; host or cells: human liver microsomes
T4 sequence (P05177 whole entry, canonical isoform): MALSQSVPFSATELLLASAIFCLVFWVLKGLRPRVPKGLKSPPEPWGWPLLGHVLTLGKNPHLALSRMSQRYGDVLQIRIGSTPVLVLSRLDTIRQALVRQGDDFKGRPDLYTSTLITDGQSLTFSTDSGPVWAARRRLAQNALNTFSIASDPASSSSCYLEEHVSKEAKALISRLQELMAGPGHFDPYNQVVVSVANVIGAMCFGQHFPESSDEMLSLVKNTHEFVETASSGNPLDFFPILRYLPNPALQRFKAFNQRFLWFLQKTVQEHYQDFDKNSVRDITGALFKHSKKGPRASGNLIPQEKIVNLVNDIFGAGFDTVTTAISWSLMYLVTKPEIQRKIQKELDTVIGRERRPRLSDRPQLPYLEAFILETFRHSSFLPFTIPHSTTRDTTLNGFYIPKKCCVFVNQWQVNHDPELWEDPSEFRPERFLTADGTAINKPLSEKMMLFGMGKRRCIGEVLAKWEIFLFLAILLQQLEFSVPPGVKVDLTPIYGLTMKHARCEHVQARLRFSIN
Method: The inhibition potential of MGS0008 (0.3‐100 µmol/L) and MGS0274 besylate (0.03‐10 µmol/L) on the activity of human cytochrome P450 (CYP) isoforms (CYP1A2, 2B6, 2C8, 2C9, 2C19, 2D6, and 3A) was investigated using probe substrates for each CYP isoform and human liver microsomes, of which the final protein concentration was set at 0.1 mg/mL (see Table S2). The assay was started by spiking the reaction mixture, which had been pre‐incubated at 37°C for 5 minutes, with NADP^+. After incubation for 5 to 10 minutes, the reaction was terminated by adding acetonitrile containing an internal standard for each probe substrate, and the resultant mixture was centrifuged. Aliquots of the supernatant were subjected to bioanalysis using LC‐MS/MS (see Table S1‐D).
The final protein concentration in the reaction mixture was set at 0.1 mg/mL. The values in parentheses represent the final concentrations of compounds added in each reaction mixture. […]

CYP2C8 = biological target: T5, CYP2C8 (Homo sapiens, UniProt P10632); assay: CYP inhibition in human liver microsomes, CYP2C8; format: in vitro ADME; settings: human liver microsomes 0.1 mg/mL; probe Amodiaquine, metabolite N-desethylamodiaquine
T5 construct: using probe substrates for each CYP isoform and human liver microsomes; from tissue; host or cells: human liver microsomes
T5 sequence (P10632 whole entry, canonical isoform): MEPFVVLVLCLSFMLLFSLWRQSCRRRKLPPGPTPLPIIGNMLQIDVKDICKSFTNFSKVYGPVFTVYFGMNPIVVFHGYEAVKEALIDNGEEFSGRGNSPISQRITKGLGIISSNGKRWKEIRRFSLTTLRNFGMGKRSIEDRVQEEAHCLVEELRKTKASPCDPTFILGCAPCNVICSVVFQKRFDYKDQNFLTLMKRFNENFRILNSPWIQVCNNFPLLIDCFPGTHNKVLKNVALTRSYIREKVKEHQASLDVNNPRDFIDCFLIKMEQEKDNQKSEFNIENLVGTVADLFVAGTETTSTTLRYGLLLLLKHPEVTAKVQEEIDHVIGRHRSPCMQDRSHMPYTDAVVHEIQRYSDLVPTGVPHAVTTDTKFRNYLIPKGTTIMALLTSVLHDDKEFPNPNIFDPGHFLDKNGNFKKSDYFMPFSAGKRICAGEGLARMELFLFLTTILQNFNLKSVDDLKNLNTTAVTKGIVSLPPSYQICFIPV

CYP2B6 mRNA = assay: CYP induction in primary cultured cryopreserved human hepatocytes, CYP2B6 mRNA; settings: three consecutive 24-hour treatments
Method: as §1

[4] = system: mRNA expression of CYP1A2, 2B6, and 3A4; assay: CYP induction in human hepatocytes, CYP1A2, 2B6 and 3A4 together; format: in vitro ADME; settings: 3-30 µmol/L; three lots of human hepatocytes
Method: as §1

CYP2C19 = biological target: T6, CYP2C19 (Homo sapiens, UniProt P33261); assay: CYP inhibition in human liver microsomes, CYP2C19; format: in vitro ADME; settings: human liver microsomes 0.1 mg/mL; probe (S)-Mephenytoin, metabolite 4'-Hydroxymephenytoin
T6 construct: using probe substrates for each CYP isoform and human liver microsomes; from tissue; host or cells: human liver microsomes
T6 sequence (P33261 whole entry, canonical isoform): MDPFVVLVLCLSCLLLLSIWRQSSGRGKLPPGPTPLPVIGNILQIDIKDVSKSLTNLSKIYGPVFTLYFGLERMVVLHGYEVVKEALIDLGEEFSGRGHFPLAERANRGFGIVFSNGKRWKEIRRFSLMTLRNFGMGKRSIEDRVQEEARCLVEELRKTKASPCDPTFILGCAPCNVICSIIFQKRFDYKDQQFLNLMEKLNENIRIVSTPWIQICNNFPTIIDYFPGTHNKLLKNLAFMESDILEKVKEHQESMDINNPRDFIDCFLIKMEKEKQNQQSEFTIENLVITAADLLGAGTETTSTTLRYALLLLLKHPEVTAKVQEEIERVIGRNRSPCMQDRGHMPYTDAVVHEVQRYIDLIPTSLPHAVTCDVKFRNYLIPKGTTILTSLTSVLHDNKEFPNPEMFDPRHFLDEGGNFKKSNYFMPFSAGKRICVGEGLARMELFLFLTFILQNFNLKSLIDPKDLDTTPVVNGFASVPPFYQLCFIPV

Fold change of mRNA expression level CYP3A4 (CYP3A4 mRNA; hepatocyte lot Hu1487, 3 μM): 1.4 fold
Fold change of mRNA expression level CYP3A4 (CYP3A4 mRNA; hepatocyte lot Hu1487, 10 μM): 1.5 fold
Fold change of mRNA expression level CYP3A4 (CYP3A4 mRNA; hepatocyte lot Hu1487, 30 μM): 1.8 fold
Fold change of mRNA expression level CYP3A4 (CYP3A4 mRNA; hepatocyte lot Hu8114, 3 μM): 1.1 fold
Fold change of mRNA expression level CYP3A4 (CYP3A4 mRNA; hepatocyte lot Hu8114, 10 μM): 0.9 fold
Fold change of mRNA expression level CYP3A4 (CYP3A4 mRNA; hepatocyte lot Hu8114, 30 μM): 1.1 fold
Fold change of mRNA expression level CYP3A4 (CYP3A4 mRNA; hepatocyte lot Hu8123, 3 μM): 0.8 fold
Fold change of mRNA expression level CYP3A4 (CYP3A4 mRNA; hepatocyte lot Hu8123, 10 μM): 0.8 fold
Fold change of mRNA expression level CYP3A4 (CYP3A4 mRNA; hepatocyte lot Hu8123, 30 μM): 0.9 fold
inhibition at 10 µM [2]: < 50%
inhibitory potential on the CYP isoforms [3]: no inhibitory potential
IC50 (CYP2D6): > 10 µM
IC50 (CYP2C9): > 10 µM
IC50 (CYP2B6): > 10 µM
Fold change of mRNA expression level CYP1A2 (CYP1A2 mRNA; hepatocyte lot Hu1487, 3 μM): 1.0 fold
Fold change of mRNA expression level CYP1A2 (CYP1A2 mRNA; hepatocyte lot Hu1487, 10 μM): 1.0 fold
Fold change of mRNA expression level CYP1A2 (CYP1A2 mRNA; hepatocyte lot Hu1487, 30 μM): 1.4 fold
Fold change of mRNA expression level CYP1A2 (CYP1A2 mRNA; hepatocyte lot Hu8114, 3 μM): 1.1 fold
Fold change of mRNA expression level CYP1A2 (CYP1A2 mRNA; hepatocyte lot Hu8114, 10 μM): 1.0 fold
Fold change of mRNA expression level CYP1A2 (CYP1A2 mRNA; hepatocyte lot Hu8114, 30 μM): 1.1 fold
Fold change of mRNA expression level CYP1A2 (CYP1A2 mRNA; hepatocyte lot Hu8123, 3 μM): 1.1 fold
Fold change of mRNA expression level CYP1A2 (CYP1A2 mRNA; hepatocyte lot Hu8123, 10 μM): 1.2 fold
Fold change of mRNA expression level CYP1A2 (CYP1A2 mRNA; hepatocyte lot Hu8123, 30 μM): 1.3 fold
IC50 (CYP1A2): > 10 µM
IC50 (CYP2C8): > 10 µM
Fold change of mRNA expression level CYP2B6 (CYP2B6 mRNA; hepatocyte lot Hu1487, 3 μM): 1.1 fold
Fold change of mRNA expression level CYP2B6 (CYP2B6 mRNA; hepatocyte lot Hu1487, 10 μM): 1.0 fold
Fold change of mRNA expression level CYP2B6 (CYP2B6 mRNA; hepatocyte lot Hu1487, 30 μM): 1.4 fold
Fold change of mRNA expression level CYP2B6 (CYP2B6 mRNA; hepatocyte lot Hu8114, 3 μM): 0.8 fold
Fold change of mRNA expression level CYP2B6 (CYP2B6 mRNA; hepatocyte lot Hu8114, 10 μM): 1.0 fold
Fold change of mRNA expression level CYP2B6 (CYP2B6 mRNA; hepatocyte lot Hu8114, 30 μM): 1.5 fold
Fold change of mRNA expression level CYP2B6 (CYP2B6 mRNA; hepatocyte lot Hu8123, 3 μM): 1.7 fold
Fold change of mRNA expression level CYP2B6 (CYP2B6 mRNA; hepatocyte lot Hu8123, 10 μM): 1.8 fold
Fold change of mRNA expression level CYP2B6 (CYP2B6 mRNA; hepatocyte lot Hu8123, 30 μM): 2.4 fold
induction potential on the CYP mRNA tested [4]: no apparent induction potential
IC50 (CYP2C19): > 10 µM
Structure (SMILES): CC(C)[C@@H]1CC[C@@H](C)C[C@H]1OC(=O)O[C@@H](C)OC(=O)[C@H]1[C@@H]2C[C@H](F)[C@@](N)(C(=O)O)[C@@H]21.O=S(=O)(O)c1ccccc1 [MGS0274 besylate, (1S,2S,3S,5R,6S)‐2‐amino‐3‐fluoro‐6‐({(1S)‐1‐[({[(1R,2S,5R)‐5‐methyl‐2‐(propan‐2‐yl)cyclohexyl]oxy}carbonyl)oxy]ethoxy}carbonyl)bicyclo[3.1.0]hexane‐2‐carboxylic acid monobenzenesulfonate]
toxicity to the cultured human hepatocytes [1]: did not show detectable toxicity
